Measured values from PubChem BioAssay AID1671291.

Target: Tyrosine-protein kinase HCK (Homo sapiens) (UniProt P08631)
Assay: inhibitors of human HCK tyrosine kinase activity – biochemical, Z'-LYTE, FRET readout, direct format, dose response (AID 1671291)
Details: Z'-LYTE FRET peptide phosphorylation, recombinant HCK

Sequence of Tyrosine-protein kinase HCK (Homo sapiens) (P08631 whole entry, looked up): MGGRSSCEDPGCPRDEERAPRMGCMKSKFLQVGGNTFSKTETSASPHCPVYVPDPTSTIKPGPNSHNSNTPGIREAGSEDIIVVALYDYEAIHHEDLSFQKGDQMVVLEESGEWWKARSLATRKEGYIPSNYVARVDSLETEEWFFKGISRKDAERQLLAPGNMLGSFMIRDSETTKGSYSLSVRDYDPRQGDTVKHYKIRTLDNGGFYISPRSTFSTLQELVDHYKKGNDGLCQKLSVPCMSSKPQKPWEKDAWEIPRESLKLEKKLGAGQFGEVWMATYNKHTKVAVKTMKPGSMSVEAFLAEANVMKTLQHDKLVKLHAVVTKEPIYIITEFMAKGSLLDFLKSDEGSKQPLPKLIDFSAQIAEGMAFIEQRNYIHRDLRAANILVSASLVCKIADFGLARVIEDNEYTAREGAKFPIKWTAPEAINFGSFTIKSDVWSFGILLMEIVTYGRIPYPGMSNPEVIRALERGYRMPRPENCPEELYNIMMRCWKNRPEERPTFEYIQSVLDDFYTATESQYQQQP

IC50: 943 nM
SMILES: COc1cc2ncnc(Nc3cccc(Cl)c3)c2cc1OC
